Entries after “also recorded” stand apart in the source; their conditions may differ.
Key:
human CB2 = target: T1, human CB2 (Homo sapiens, UniProt P34972); assay: Radioligand binding to CB2, U698M cells expressing endogenous CB2
T1 construct: expressed in transfected cells; host or cells: CHO cells

human CB1 = human CB1 (Homo sapiens, UniProt P21554); assay: Human CB1 binding assay
[1] = tested on: 131 targets along with 57 CNS- and abuse potential-specific targets; assay: In vitro pharmacology profile on target panels; conditions: 30 μM
Experimental: The in vitro pharmacology profile of RO6868847 was evaluated at concentration of 30 μM on panels including 131 targets along with 57 CNS- and abuse potential-specific targets.

[2] = tested on: STZ-induced Type 1 diabetes; type: in vivo; conditions: rat, 10 mg/kg
Experimental: (§1) Pharmacological studies were performed in vitro and in vivo to investigate the potency, selectivity and activity of RO6868847. Pharmacological effects were determined in vivo in two different diabetic animal models which include the streptozotocin (STZ)-induced rat Type 1 diabetes and genetic Type 2 diabetes mouse models as well as in two acute models with acute inflammatory stimulus (LPS-injections) or laser injury (CNV). Additional in vitro pharmacology studies were performed to explore the pharmacological effect of RO6868847 and the suitability of the assays as biomarkers of target engagement and pharmacodynamic effect (PD) in human whole blood obtained from either healthy volunteers or diabetic patients.
(§2) The diversity of the tested models (including acute challenge versus disease-modifying models) and the absence of a recommended nonclinical DME/DR model with proven clinical translatability presents a challenge for the estimation of pharmacologically active exposure in humans.
Exposure was derived from satellite animals or extrapolated from previous PK or PD studies in the same species. […]

[3] = tested on: laser-induced neovascularization; type: in vivo, rat
Experimental: as §1, §2
Exposure was derived from satellite animals or extrapolated from previous PK or PD studies in the same species.
Based on this integrated assessment, the pharmacologically active exposure range observed in rats spans 2 logs, with an upper bound (unbound AUC0-24 [S-epimer]=546 ng·hr/mL) corresponding to the full effect at 10 mg/kg in a rat STZ-induced Type 1 diabetes model and the lower bound (unbound AUC0-24 [S-epimer]=2.8 ng·hr/mL) corresponding to 50% decrease in disease marker (hypoerfluorescence area) in a laser-induced NV rat model.

[4] = Study BP40387 Part 1 (SAD) pharmacokinetics, healthy participants; type: in vivo, human; conditions: for Tmax / half-life / AUC / Cmax: both sexes, human, plasma
Experimental: In Part 1 (SAD) of Study BP40387, in the fasted state, RO6868847 was overall rapidly absorbed; however, the Tmax appeared to shift with increasing dose. Individual Tmax ranged between 1 to 6 hours at 100 mg and 300 mg RO6868847.

[5] = Study BP40387 Part 2 (FE) food effect on pharmacokinetics; type: in vivo, human; conditions: for Tmax: both sexes, human, plasma, oral, 100 mg single dose, read-out: Median Tmax
Text: In Part 2 (FE) of Study BP40387, consistent with delayed gastric emptying due to an extended meal, the time to reach peak plasma concentration (Tmax) was slightly longer following dosing after a high fat, high calorie breakfast. […] Single Dose Urine Pharmacokinetics

[6] = Solubility of drug substance; type: physicochemical
Experimental: For Phase I, film-coated tablets for oral administration containing 0.05, 0.75, 10, or 100 mg of RO6868847 drug substance were developed for clinical use. Three placebo film-coated tablets were formulated to match the active film-coated tablets in size and in appearance: one size to match the active 0.05 and 0.75 mg film-coated tablets and one size each to match the active 10 and 100 mg film-coated tablets.

[7] = Study BP40387 Part 1 (SAD) pharmacokinetics, healthy participants; type: in vivo, human; conditions: single and multiple dose, on average
clinical = conditions: both, human, plasma, oral
Experimental: (§3) Study BP40387 was a Phase I study that was conducted in healthy male and female participants, and included 5 parts. Part 1 (SAD) consisted of an adaptive, single-ascending-dose, investigator/participant-blind, randomized, placebo-controlled, parallel study to investigate the safety, tolerability, and pharmacokinetics of RO6868847. Part 2 (FE), was designed as an open-label, randomized, two-period crossover, single dose investigation of the effect of food on the pharmacokinetics of RO6868847. Part 3 (MAD), was an adaptive, multiple-ascending-dose, investigator/participant-blind, randomized, placebo-controlled, parallel study to investigate the safety, tolerability, and pharmacokinetics of RO6868847 administered once-daily for 14 days. Part 4 (DDI-CYP Induction), was a non-randomized, open-label, fixed-sequence, two-period study to explore RO6868847-mediated CYP induction at 300 mg administered once-daily for 14 days, using midazolam, repaglinide, and bupropion as probe substrates for CYP3A, CYP2C8, and CYP2B6, respectively. […] Overall, in Part 1 (SAD), a total of 33 healthy participants received single oral doses of RO6868847 ranging between 0.75 mg and 300 mg, and 12 participants received placebo under fasting conditions. In Part 2 (FE), 8 participants received a single oral dose of 100 mg RO6868847 once after an overnight fast of at least 10 hours and once within 30 minutes after starting a high-calorie, high-fat breakfast. In Part 3 (MAD), a total of 30 participants received multiple oral doses of 6 mg to 300 mg RO6868847 QD for 14 days, and 10 participants received placebo.

[8] = Study BP40387 Part 3 (MAD) pharmacokinetics, once daily for 14 days;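 further: phase I trial BP40387 in healthy male and female volunteers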
Experimental: as §3

[9] = single oral 0.75 mg, fasted, geo mean
[10] = single oral 3.0 mg, fasted, geo mean
[11] = single oral 10 mg, fasted, geo mean
[12] = single oral 30 mg, fasted, geo mean
[13] = single oral 100 mg, fasted, geo mean
[14] = single oral 300 mg, fasted, geo mean

Chain of human CB1 (P21554 whole entry): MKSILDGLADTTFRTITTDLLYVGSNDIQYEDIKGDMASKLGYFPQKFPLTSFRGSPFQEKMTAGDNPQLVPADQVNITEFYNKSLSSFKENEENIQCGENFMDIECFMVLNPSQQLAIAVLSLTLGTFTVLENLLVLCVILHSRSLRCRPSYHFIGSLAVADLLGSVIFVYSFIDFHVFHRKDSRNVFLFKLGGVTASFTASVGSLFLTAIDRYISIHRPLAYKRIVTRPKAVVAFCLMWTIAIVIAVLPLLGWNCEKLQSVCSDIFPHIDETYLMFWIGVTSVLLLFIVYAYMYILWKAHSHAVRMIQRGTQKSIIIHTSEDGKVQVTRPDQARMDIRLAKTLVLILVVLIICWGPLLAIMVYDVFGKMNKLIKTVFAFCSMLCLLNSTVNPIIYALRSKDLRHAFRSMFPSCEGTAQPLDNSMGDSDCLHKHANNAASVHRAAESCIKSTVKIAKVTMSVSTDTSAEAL
T1 sequence (P34972 whole entry): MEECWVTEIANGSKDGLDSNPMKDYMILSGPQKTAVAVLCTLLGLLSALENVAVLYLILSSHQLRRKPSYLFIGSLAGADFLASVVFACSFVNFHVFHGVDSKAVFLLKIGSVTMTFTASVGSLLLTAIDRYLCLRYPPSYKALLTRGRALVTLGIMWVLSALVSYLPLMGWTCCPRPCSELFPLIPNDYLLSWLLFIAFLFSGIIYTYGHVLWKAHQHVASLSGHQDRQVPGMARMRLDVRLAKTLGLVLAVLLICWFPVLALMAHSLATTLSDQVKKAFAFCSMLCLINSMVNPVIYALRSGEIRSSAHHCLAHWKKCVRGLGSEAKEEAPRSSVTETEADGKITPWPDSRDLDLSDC

In the case of `Cn1nnnc1Cn1nnc2c(N3CC[C@H](O)C3)nc(C(C)(C)C)nc21` [RO6868847, (3S)-1-[5-tert-butyl-3-[(1-methyltetrazol-5-yl)methyl]triazolo[4,5-d]pyrimidin-7-yl]pyrrolidin-3-ol], the IC50 (human CB2) is reported as 0.0922 ± 0.0131 µM, the Ki (human CB2) is reported as 0.0628 µM and the Ki (human CB1) is reported as greater than 10 µM. The “CB1/CB2 Ratio (binding selectivity)” value (human CB1; CB1 Ki over CB2 Ki) was greater than 195 fold, the “affinity for human CB1” value (human CB1; highest concentration of 10 μM) was “no affinity” and the “selectivity for CB2 in panels” value [1] was “high selectivity for CB2 in all the panels”. The “effect on disease marker” value [2] was “full effect”, the “unbound AUC0-24 [S-epimer], upper bound of pharmacologically active exposure” value ([2]; in vivo) was 546 ng·hr/mL and the “decrease in disease marker (hyperfluorescence area)” value ([3]; rat, at unbound AUC0-24 2.8 ng·hr/mL) was 50%. For the same molecule, the “unbound AUC0-24 [S-epimer], lower bound of pharmacologically active exposure” value ([3]; rat, in vivo) was 2.8 ng·hr/mL, the retinal hyperfluorescence ([3]; rodent laser injury model) was “reduction of retinal hyperfluorescence” and the Tmax ([4]; oral, Study BP40387, fasted conditions, across doses, read-out: median Tmax) was 1 to 4 h. It also gave a Tmax ([4]; oral, single dose 100 mg and 300 mg, fasted, read-out: Individual Tmax) of 1 to 6 h, a half-life ([4]; oral, single dose, range across doses, read-out: apparent terminal elimination half-life) of 6.95 to 18.5 h and a Tmax ([4]; po, 0.75 mg, single oral 0.75 mg, fasted, median, read-out: Tmax) of 1 h. The Tmax ([4]; po, 3 mg, single oral 3.0 mg, fasted, median, read-out: Tmax) was 1 h, the Tmax ([4]; po, 10 mg, single oral 10 mg, fasted, median, read-out: Tmax) was 1.75 h and the Tmax ([4]; po, 30 mg, single oral 30 mg, fasted, median, read-out: Tmax) was 1.5 h. It also gave a Tmax ([4]; po, 100 mg, single oral 100 mg, fasted, median, read-out: Tmax) of 1.75 h, a Tmax ([4]; po, 300 mg, single oral 300 mg, fasted, median, read-out: Tmax) of 3 h and an AUC [4, 9] of 112 ng·h/mL. For the same molecule, the Cmax [4, 9] was 9.92 ng/mL, the half-life ([4]; single oral 0.75 mg, fasted, geo mean, read-out: t1/2 (converted)) was 6.89 h and the AUC [4, 10] was 435 ng·h/mL. The Cmax [4, 10] was 40 ng/mL, the half-life ([4]; single oral 3.0 mg, fasted, geo mean, read-out: t1/2 (converted)) was 7.99 h and the AUC [4, 11] was 972 ng·h/mL. For the same molecule, the Cmax [4, 11] was 111 ng/mL, the half-life ([4]; single oral 10 mg, fasted, geo mean, read-out: t1/2 (converted)) was 6.95 h and the AUC [4, 12] was 3530 ng·h/mL. For the same molecule, the Cmax [4, 12] was 355 ng/mL, the half-life ([4]; single oral 30 mg, fasted, geo mean, read-out: t1/2 (converted)) was 6.97 h and the AUC [4, 13] was 12500 ng·h/mL. It also gave a Cmax [4, 13] of 1120 ng/mL, a half-life ([4]; single oral 100 mg, fasted, geo mean, read-out: t1/2 (converted)) of 14.6 h and an AUC [4, 14] of 31400 ng·h/mL. The Cmax [4, 14] was 2500 ng/mL, the half-life ([4]; single oral 300 mg, fasted, geo mean, read-out: t1/2 (converted)) was 18.5 h and the “dose-proportionality of Cmax and AUC” value ([4]; doses beyond 100 mg) was “slightly less than dose-proportional”. For the same molecule, the “dose-proportionality of Cmax and AUC” value ([4]; up to 100 mg) was “no pronounced deviations from dose-proportionality; also recorded: approximately dose-proportionally”, the “effect of food on AUCInf” value ([5]; 100 mg, fed vs fasted) was “increased only marginally” and the “effect of food on Cmax” value ([5]; 100 mg, fed vs fasted) was “remained unaffected by food”. For the same molecule, the Tmax ([5]; 100 mg, fasted state) was 3 h, the Tmax ([5]; 100 mg, fed state (high fat, high calorie breakfast)) was 4 h and the “effect of food on the pharmacokinetics” value ([5]; overall) was “no relevant effect”. The “solubility in aqueous solutions” value [6] was “slightly soluble”, the “solubility in organic solvents” value [6] was “moderate to good solubility” and the “Renal excretion, share of the dose administered” value [7] was “less than 5%”. For the same molecule, the half-life (clinical) was 8.27 to 39 h, the AUC (clinical; 6 mg) was 870 ng·h/mL and the Cmax (clinical; 6 mg) was 97.9 ng/mL. It also gave a half-life (clinical; 6 mg) of 8.27 h, an AUC (clinical; 20 mg) of 2610 ng·h/mL and a Cmax (clinical; 20 mg) of 289 ng/mL. For the same molecule, the Tmax (clinical; 20 mg) was 1.06 h, the half-life (clinical; 20 mg) was 15 h and the AUC (clinical; 60 mg) was 8480 ng·h/mL. The Cmax (clinical; 60 mg) was 899 ng/mL, the Tmax (clinical; 60 mg) was 2 h and the half-life (clinical; 60 mg) was 31.6 h. It also gave an AUC (clinical; 200 mg) of 21400 ng·h/mL, a Cmax (clinical; 200 mg) of 2380 ng/mL and a Tmax (clinical; 200 mg) of 3 h. The AUC (clinical; 300 mg) was 27100 ng·h/mL, the Cmax (clinical; 300 mg) was 2970 ng/mL and the Tmax (clinical; 300 mg) was 2.5 h. The half-life (clinical; 300 mg) was 39 h, the “time dependence of pharmacokinetics” value ([8]; in vivo) was “absence of relevant PK time dependencies; also recorded: no evidence of time-dependent pharmacokinetics” and the “time to steady state” value ([8]; once-daily dosing) was “approximately after the second day of dosing; also recorded: approximately after the second day of treatment”. For the same molecule, the “accumulation of Cmax and AUCtau” value ([8]; once-daily dosing, independent of dose) was “only minor accumulation”.
